According to ChEMBL document CHEMBL4673317, “Linearolactone and Kaempferol Disrupt the Actin Cytoskeleton in Entamoeba histolytica: Inhibition of Amoebic Liver Abscess Development” (J Nat Prod, 2020):
The source made the active and inactive calls. No cut-off for these calls is given here.

Key:
[1] = tested on: Entamoeba histolytica; experiment: Induction of apoptosis in Entamoeba histolytica […] trophozoites assessed as viable cells at IC50 concentration after 48 hrs by annexin-V-FITC/propidium iodide staining based flow cytometric analysis (reference value: 98%); type: functional, HM-1:IMSS
[2] = tested on: Entamoeba histolytica; experiment: Antimicrobial activity against Entamoeba histolytica […] trophozoites infected in Syrian hamster assessed as ALT level at 0.1 mg/kg, ip at 4 days post infection and measured on day 8 (reference value: 276 +/- 24 U/L); type: functional, HM-1:IMSS; conditions: time 4 day
[3] = tested on: Entamoeba histolytica; experiment: Antimicrobial activity against Entamoeba histolytica […] trophozoites infected in Syrian hamster assessed as glucose level at 0.1 mg/kg, ip at 4 days post infection and measured on day 8 (reference value: 126 +/- 18 mg/dl); type: functional, HM-1:IMSS; conditions: time 4 day
[4] = tested on: Entamoeba histolytica; experiment: Antimicrobial activity against Entamoeba histolytica […] trophozoites assessed as decrease in number of vacuoles at IC50 concentration after 48 hrs by uranyl acetate staining based TEM analysis; type: functional, organism-based; conditions: HM-1:IMSS
[5] = tested on: Entamoeba histolytica; experiment: Antimicrobial activity against Entamoeba histolytica […] trophozoites infected in Syrian hamster assessed as inhibition of amoebic liver abscess by measuring edema at 0.1 mg/kg, ip at 4 days post infection and measured on day 8 by H and E staining based microscopic method; type: functional, organism-based; conditions: HM-1:IMSS, time 4.0 day
[6] = tested on: Entamoeba histolytica; experiment: Antimicrobial activity against Entamoeba histolytica HM1:MMS assessed as reduction in amoeba growth; type: functional, organism-based; conditions: HM-1:IMSS
[7] = tested on: Entamoeba histolytica; experiment: Induction of apoptosis in Entamoeba histolytica […] trophozoites assessed as necrotic cells at IC50 concentration after 48 hrs by annexin-V-FITC/propidium iodide staining based flow cytometric analysis (reference value: 0.4%); type: functional, HM-1:IMSS
[8] = tested on: Entamoeba histolytica; experiment: Antimicrobial activity against Entamoeba histolytica […] trophozoites assessed as abnormal condensation of chromatin at IC50 concentration after 48 hrs by uranyl acetate staining based TEM analysis; type: functional, organism-based; conditions: HM-1:IMSS
[9] = tested on: CHO-K1; experiment: Cytotoxicity against CHO-K1 cells assessed as reduction in cell viability after 24 hrs by MTT assay; type: cell-based; conditions: Cricetulus griseus, CHO-K1, 24 h
[10] = tested on: Entamoeba histolytica; experiment: Antimicrobial activity against Entamoeba histolytica […] trophozoites infected in Syrian hamster assessed as inhibition of amoebic liver abscess at 0.1 mg/kg, ip at 4 days post infection and measured on day 8 by NMR analysis; type: functional, organism-based; conditions: HM-1:IMSS, time 4.0 day
[11] = tested on: Entamoeba histolytica; experiment: Induction of ROS generation in Entamoeba histolytica […] trophozoites at IC50 concentration incubated for 1 hr by DCFDA staining based assay; type: functional, organism-based; conditions: HM-1:IMSS
[12] = tested on: Entamoeba histolytica; experiment: Induction of ROS generation in Entamoeba histolytica […] trophozoites at IC50 concentration incubated for 1 hr in presence of catalase by DCFDA staining based assay relative to control; type: functional, HM-1:IMSS
[13] = tested on: Entamoeba histolytica; experiment: Antimicrobial activity against Entamoeba histolytica […] trophozoites infected in Syrian hamster assessed as total bilirubin level at 0.1 mg/kg, ip at 4 days post infection and measured on day 8 (reference value: 0.8 +/- 0.2 mg/dl); type: functional, HM-1:IMSS; conditions: time 4 day
[14] = tested on: Entamoeba histolytica; experiment: Antimicrobial activity against Entamoeba histolytica […] trophozoites assessed as decrease in size of cells at IC50 concentration after 48 hrs by uranyl acetate staining based TEM analysis; type: functional, organism-based; conditions: HM-1:IMSS
[15] = tested on: Entamoeba histolytica; experiment: Antimicrobial activity against Entamoeba histolytica […] trophozoites infected in Syrian hamster assessed as triglycerides level at 0.1 mg/kg, ip at 4 days post infection and measured on day 8 (reference value: 395 +/- 41 mg/dl); type: functional, HM-1:IMSS; conditions: time 4 day
[16] = tested on: Entamoeba histolytica; experiment: Antimicrobial activity against Entamoeba histolytica […] trophozoites infected in Syrian hamster assessed as ALP level at 0.1 mg/kg, ip at 4 days post infection and measured on day 8 (reference value: 638 +/- 50 U/L); type: functional, HM-1:IMSS; conditions: time 4 day
[17] = tested on: Entamoeba histolytica; experiment: Antimicrobial activity against Entamoeba histolytica […] trophozoites infected in Syrian hamster assessed as inhibition of amoebic liver abscess by measuring liver weight at 0.1 mg/kg, ip at 4 days post infection and measured on day 8 relative to control; type: functional; conditions: HM-1:IMSS, 96 h, time 4 day
[18] = tested on: Entamoeba histolytica; experiment: Antimicrobial activity against Entamoeba histolytica […] trophozoites infected in Syrian hamster assessed as creatinine level at 0.1 mg/kg, ip at 4 days post infection and measured on day 8 (reference value: 0.9 +/- 0.06 mg/dl); type: functional, HM-1:IMSS; conditions: time 4 day
[19] = tested on: Entamoeba histolytica; experiment: Antimicrobial activity against Entamoeba histolytica […] trophozoites infected in Syrian hamster assessed as urea level at 0.1 mg/kg, ip at 4 days post infection and measured on day 8 (reference value: 14 +/- 1 mg/dl); type: functional, HM-1:IMSS; conditions: time 4 day
[20] = tested on: Entamoeba histolytica; experiment: Antimicrobial activity against Entamoeba histolytica […] trophozoites infected in Syrian hamster assessed as blood ureic nitrogen level at 0.1 mg/kg, ip at 4 days post infection and measured on day 8 (reference value: […]); type: functional, HM-1:IMSS; conditions: time 4 day
[21] = tested on: Entamoeba histolytica; experiment: Antimicrobial activity against Entamoeba histolytica […] trophozoites infected in Syrian hamster assessed as inhibition of amoebic liver abscess by abundant monocytes at 0.1 mg/kg, ip at 4 days post infection and measured on day 8 by H and E staining based microscopic method; type: functional, organism-based; conditions: HM-1:IMSS, time 4.0 day
[22] = tested on: Entamoeba histolytica; experiment: Antimicrobial activity against Entamoeba histolytica […] trophozoites infected in Syrian hamster assessed as platelets at 0.1 mg/kg, ip at 4 days post infection and measured on day 8 (reference value: 439 +/- 108 […]); type: functional, HM-1:IMSS; conditions: time 4 day
[23] = tested on: Entamoeba histolytica; experiment: Antimicrobial activity against Entamoeba histolytica […] trophozoites infected in Syrian hamster assessed as inhibition of amoebic liver abscess by measuring vascular congestion at 0.1 mg/kg, ip at 4 days post infection and measured on day 8 by H and E staining based microscopic method; type: functional, organism-based; conditions: HM-1:IMSS, time 4.0 day
[24] = tested on: BEAS-2B; experiment: Cytotoxicity against human BEAS-2B cells assessed as reduction in cell viability after 24 hrs by MTT assay; type: cell-based
[25] = tested on: Entamoeba histolytica; experiment: Induction of DNA fragmentation in Entamoeba histolytica […] trophozoites at IC50 concentration after 1 hr by TUNEL assay relative to control; type: functional, HM-1:IMSS
[26] = tested on: Entamoeba histolytica; experiment: Binding affinity to Entamoeba histolytica […] trophozoites actin assessed as induction of polarization of polymerized actin at IC50 concentration incubated for 1 hrs by […] staining based confocal microscopic analysis
[27] = tested on: Entamoeba histolytica; experiment: Induction of apoptosis in Entamoeba histolytica […] trophozoites assessed as late apoptotic cells at IC50 concentration after 48 hrs by annexin-V-FITC/propidium iodide staining based flow cytometric analysis (reference value: 0.7%); type: functional, HM-1:IMSS
[28] = tested on: Entamoeba histolytica; experiment: Induction of apoptosis in Entamoeba histolytica […] trophozoites assessed as early apoptotic cells at IC50 concentration after 48 hrs by annexin-V-FITC/propidium iodide staining based flow cytometric analysis (reference value: 0.9%); type: functional, HM-1:IMSS
[29] = tested on: Entamoeba histolytica; experiment: Antimicrobial activity against Entamoeba histolytica […] trophozoites assessed as decrease in granularity at IC50 concentration after 48 hrs by uranyl acetate staining based TEM analysis; type: functional, organism-based; conditions: HM-1:IMSS
[30] = tested on: Entamoeba histolytica; experiment: Induction of ROS generation in Entamoeba histolytica […] trophozoites at IC50 concentration incubated for 1 hr in presence of trolox by DCFDA staining based assay relative to control; type: functional, HM-1:IMSS
[31] = tested on: Entamoeba histolytica; experiment: Binding affinity to Entamoeba histolytica […] trophozoites actin assessed as formation of pseudo-plates at IC50 concentration incubated for 1 hrs by […] staining based confocal microscopic analysis

| Structure (SMILES) | Activity [1] | Activity [2] | Activity [3] | IC50 [6] | Activity [7] | Activity [8] | IC50 [9] | Activity [11] | Activity [13] | Activity [14] | Activity [15] | Activity [16] | Activity [18] | Activity [19] | Activity [20] | Activity [22] | IC50 [24] | Activity [27] | Activity [28] | Activity [29] | other results |
| --- | --- | --- | --- | --- | --- | --- | --- | --- | --- | --- | --- | --- | --- | --- | --- | --- | --- | --- | --- | --- | --- |
| C[C@]12C[C@H](c3ccoc3)OC(=O)[C@H]1CC[C@@]13COC(=O)C1=CC=C[C@H]32 | 12.6% | 81 U/L | 130 mg/dL | 27.7 µM | 9.4% | Active | 880 µM | Active | 0.4 mg/dL | Active | 127 mg/dL | 324 U/L | 0.6 mg/dL | 45 mg/dL | 17 mg/dL | 320 thousand/mm3 | 600 µM | 58.6% | 19.5% | Active | Activity [4]: Active; inhibition [5]: Active; inhibition [10]: Active; Activity [12]: 52.68%; inhibition in vivo at 0.1 mg/kg [17]: 93.3%; inhibition [21]: Active; inhibition [23]: Active; Activity [25]: 78%; Activity [26]: Active |
| Cc1ncc([N+](=O)[O-])n1CCO [METRONIDAZOLE] | 91.3% | 159 U/L | 148 mg/dL | 22.9 µM | 0.3% | Active | 2920 µM | Active | 0.8 mg/dL | Active | 335 mg/dL | 185 U/L | 1 mg/dL | 41 mg/dL | 19 mg/dL | 616 thousand/mm3 | 2240 µM | 2.9% | 5.5% | Active | Activity [30]: 49.11%; Activity [31]: Active |
